Values joined by “and” are separate entries in the source; they are usually repeats but may differ in a detail not shown here. Equal entries are not always repeated.
Columns and labels:
[1] = system: HBV-specific CD8+ T cells from CHB patient PBMCs; assay: HBV-specific CD8+ T cell expansion and recall response assay in CHB patient PBMCs (IFN-γ, granzyme B by flow cytometry); format: cell-based, human
Protocol: (§1) Assays PBMC Isolation from Whole Blood PBMCs were isolated from whole blood using a standard Ficoll® Paque gradient. Briefly, 25-30 mL of blood was gently overlaid on top of 15 mL Ficoll® Paque Plus solution (GE Healthcare, Chicago, Ill.) in a 50 mL Falcon tube, and centrifuged in an Allegra X-14R (Beckman Coulter, Indianapolis, Ind.) at 520 g for 20 minutes at 25° C. […] Next, the cells were centrifuged at 520 g for 5 minutes and red blood cells (RBC) lysed for 5 minutes at room temperature using RBC Lysis Buffer (eBioscience, San Diego, Calif.). […] PBMCs were either subsequently used for the T cell expansion assay, or were cryopreserved with 10% DMSO in PBS before further use. CD8^+ and CD4^+ T Cell 7-Day Expansion and Recall Response Assay
(§2) PBMCs were seeded at 2-4×10^5 cells/well in 96-well round bottom plates (Corning, N.Y.). […] PBMCs were incubated for 7 days at 37° C. with 5% CO2 in a humidified incubator. […] To inhibit protein transport, 1 μg/mL brefeldin. A solution (Sigma) was added to each well. After overnight incubation, cells were processed for immunostaining and flow cytometry as described herein.
(§3) Washed cells were resuspended in Live/Dead Aquamine Stain (Invitrogen) per manufacturer's instructions to determine the viability of the cells by flow cytometry. Live/Dead Aqua stained PBMCs were washed twice with FACS staining buffer (1% FBS in PBS), and then incubated with 50 μL of Fc blocking reagent (BD Biosciences, Franklin Lakes, N.J.) for 10 minutes at room temperature. A mixture of antibodies (50 μL/well) described in Table 6 were added to the blocking solution for surface staining, and PBMCs were incubated with the antibodies for 40 minutes at 4° C. […] Cells were washed twice with the permeabilization reagent included in the FoxP3 staining kit and incubated with antibodies for intracellular staining of IFN-γ and GrB (Table 6) at 1.0 μg/mL. After 1 hour incubation at 4° C., PBMCs were centrifuged and washed twice before being resuspended in FACS buffer. Stained PBMCs were analyzed by flow cytometry using a BD LSRFortessa X-20 Cell Analyzer (Becton Dickinson). BD Comp Beads (BD Biosciences) were used as compensation controls. CD8^+ and CD4^+ T cells were identified by gating on the live Aquamine^−CD3^+CD8^+ and Aquamine^−CD3^+CD4^+ PBMC population respectively.
(§4) Flow cytometry data was analyzed using FlowJo Flow Cytometry Analysis Software v10 (TreeStar, Ashland, Oreg.). Data was exported and statistical analysis was performed using GraphPad Prism v6 (GraphPad Software, La Jolla, Calif.). Statistical significance relative to the DMSO control was calculated by two-tailed, paired t-test.

[2] = system: HBV-specific CD4+ T cells from CHB patient PBMCs; assay: HBV-specific CD4+ T cell expansion and recall response assay in CHB patient PBMCs (IFN-γ, granzyme B by flow cytometry); format: cell-based, human
Protocol: as §1, §2, §3, §4

[3] = 650 nM compound 139 or 10 μg/mL durvalumab, PBMCs from 9 of the 14 CHB donors (FIG. 1B)

COc1nc(-c2cccc(-c3cccc(-c4cnc(CNC[C@@H]5CCC(=O)N5)c(OC)n4)c3Cl)c2Cl)cnc1CNC[C@@H]1CCC(=O)N1 [compound 139]
increase of granzyme B (GrB)+ CD8+ T cells ([1]; 650 nM compound 139, HBV core peptide-stimulated PBMCs from 14 CHB donors, vs DMSO): 1.2 fold
increase of GrB+CD8+ T cells, comparison with durvalumab [1, 3]: 1.2 fold
increase of IFN-γ+CD8+ T cells, comparison with durvalumab [1, 3]: 2.5 fold
IFN-γ and Granzyme B Production in chronic hepatitis B (CHB) CD8+ T Cells ([1]; FIG. 1A and FIG. 1B): enhances
% IFN-γ+ (IFN-γ+ CD8+ T cells) ([1]; individual CHB donor, HBV core peptide-stimulated PBMCs, compound 139 650 nM): 0.94% and 0.41% and 0.61% and 0.90% and 0.30%
increase of granzyme B (GrB)+ CD4+ T cells ([2]; 650 nM compound 139, HBV core peptide-stimulated PBMCs from CHB donors, vs DMSO): 1.8 fold
frequency of CD4+ IFN-γ+ T cells ([2]; 650 nM compound 139 or 10 μg/mL durvalumab treated PBMCs): 2.5%
frequency of GrB+CD4+ T cells ([2]; 650 nM compound 139 or 10 μg/mL durvalumab, DMSO 3.5%): 4.7%
IFN-γ and Granzyme B Production in chronic hepatitis B (CHB) CD4+ T Cells ([2]; FIG. 2A and FIG. 2B): enhances

— patent publication US11555029B2, “PD-1/PD-L1 inhibitors” (Gilead Sciences, Inc., priority 2018, dated 2023)
